Source: patent US20080234332A1, “RAF KINASE INHIBITORS CONTAINING A ZINC BINDING MOIETY” (priority 2007, published 2008)

Columns and labels:
Assay type in all cases: biochemical
HDAC = HDAC fluorimetric assay kit (HeLa nuclear extract); conditions: read-out: HDAC IC50 grade
Procedure: HDAC inhibitors were screened using an HDAC fluorimetric assay kit (AK-500, Biomol, Plymouth Meeting, Pa.). […] Each assay was setup as follows: Defrosted all kit components and kept on ice until use. Diluted HeLa nuclear extract 1:29 in assay buffer (50 mM Tris/Cl, pH 8.0, 137 mM NaCl, 2.7 mM KCl, 1 mM MgCl2). Prepared dilutions of Trichostatin A (TSA, positive control) and tested compounds in assay buffer (5× of final concentration). Diluted Fluor de LysTM Substrate in assay buffer to 100 uM (50 fold=2× final). Diluted Fluor de LysTM developer concentrate 20-fold (e.g. 50 μl plus 950 μl assay buffer) in cold assay buffer. Second, diluted the 0.2 mM Trichostatin A 100-fold in the 1× Developer (e.g. 10 μl in 1 ml; final Trichostatin A concentration in the 1× Developer=2 μM; final concentration after addition to HDAC/Substrate reaction=1 μM). Added assay buffer, diluted trichostatin A or test inhibitor to appropriate wells of the microtiter plate. Added diluted HeLa extract or other HDAC sample to all wells except for negative controls. Allowed diluted Fluor de LysTM Substrate and the samples in the microtiter plate to equilibrate to assay temperature (e.g. 25 or 37° C. Initiated HDAC reactions by adding diluted substrate (25 μl) to each well and mixing thoroughly. Allowed HDAC reactions to proceed for 1 hour and then stopped them by addition of Fluor de LysTM Developer (50 μl). Incubated plate at room temperature (25° C.) for 10-15 min. Read samples in a microtiter-plate reading fluorimeter capable of excitation at a wavelength in the range 350-380 nm and detection of emitted light in the range 440-460 nm.
(§1) The following TABLE B lists compounds representative of the invention and their activity in HDAC, VEGFR2 and RAF assays.

C-Raf = C-Raf (Homo sapiens, UniProt P04049); assay: Raf kinase assay (C-Raf kit, MEK-1 substrate, dot blot); conditions: 250 μM ATP; read-out: C-Raf IC50 grade
Procedure: (§2) The Raf kinase assay was performed by following the protocol of Raf kinase assay kit (B-Raf, Upstate, catalog# 17-359; C-Raf, Upstate, catalog# 17-360) with modifications. Briefly, assay buffer, ATP, substrate and Raf kinase were mixed in a 96 well assay plate. The final kinase assay mixture contained 20 mM MOPS, pH7.2, 25 mM β-glycerol phosphate, 5 mM EGTA, 1 mM sodium orthovanadate, 1 mM DTT, 250 μM ATP and 37.5 mM magnesium chloride, 0.1 μg/well of Raf kinase, and 1 μg/well of MEK-1 substrate protein. Assay samples were incubated for 30 min at room temperature. The kinase reaction was stopped by adding EDTA, pH8 to a final concentration of 25 mM. A 10 μl of the reaction sample was spotted onto nitrocellulose filter and dot blot was performed by adding 1 μg/ml of anti-phospho-MEK-1 antibody in the blocking solution (Licor Bioscience, catalogue # 927-40000). The nitrocellulose filter was subsequently incubated with secondary IRDye 800CW goat anti-rabbit antibody (Licor Bioscience, catalogue # 926-32211) before reading the signal on an Odyssey imager (Licor Bioscience).
as §1

VEGFR2 = target: T1, VEGFR2 (Homo sapiens, UniProt P35968); assay: HTScan VEGFR2 Kinase Assay (DELFIA); conditions: 200 μM ATP; read-out: VEGFR2 IC50 grade
T1 construct: GST (N); His6 (N); Thrombin cleavage site (N); purchased Cell Signaling Technologies; host or cells: baculovirus expression system
Procedure: The ability of compounds to inhibit VEGFR2 kinase activity was assayed using HTScan™ VEGFR2 Kinase Assay Kits (Cell Signaling Technologies, Danvers, Mass.). […] The protein was purified by one-step affinity chromatography using glutathione-agarose.
Immediately transfer enzyme from −80° C. to ice. Allowed enzyme to thaw on ice. […] Returned immediately to ice. […] Incubated reaction plate at room temperature for 30 minutes. […] Added 100 μl/well primary antibody. Incubated at room temperature for 60 minutes. […] Added 100 μl/well diluted antibody. Incubated at room temperature for 30 minutes. […] Incubated at room temperature for 5 minutes.
as §1

B-Raf = target: T2, B-Raf (Homo sapiens, UniProt P15056); assay: Raf kinase assay (B-Raf kit, MEK-1 substrate, dot blot); conditions: 250 μM ATP; read-out: B-Raf IC50 grade
T2 construct: purchased Upstate 17-359
Procedure: as §2, §1

PDGFRβ = PDGFRβ (Homo sapiens, UniProt P09619); assay: PDGFRβ kinase inhibition (Table B); conditions: read-out: PDGFRβ IC50 grade
cKit = cKit (Homo sapiens, UniProt P10721); assay: cKit kinase inhibition (Table B); conditions: read-out: cKit IC50 grade
cKit, sequence (P10721 26-976): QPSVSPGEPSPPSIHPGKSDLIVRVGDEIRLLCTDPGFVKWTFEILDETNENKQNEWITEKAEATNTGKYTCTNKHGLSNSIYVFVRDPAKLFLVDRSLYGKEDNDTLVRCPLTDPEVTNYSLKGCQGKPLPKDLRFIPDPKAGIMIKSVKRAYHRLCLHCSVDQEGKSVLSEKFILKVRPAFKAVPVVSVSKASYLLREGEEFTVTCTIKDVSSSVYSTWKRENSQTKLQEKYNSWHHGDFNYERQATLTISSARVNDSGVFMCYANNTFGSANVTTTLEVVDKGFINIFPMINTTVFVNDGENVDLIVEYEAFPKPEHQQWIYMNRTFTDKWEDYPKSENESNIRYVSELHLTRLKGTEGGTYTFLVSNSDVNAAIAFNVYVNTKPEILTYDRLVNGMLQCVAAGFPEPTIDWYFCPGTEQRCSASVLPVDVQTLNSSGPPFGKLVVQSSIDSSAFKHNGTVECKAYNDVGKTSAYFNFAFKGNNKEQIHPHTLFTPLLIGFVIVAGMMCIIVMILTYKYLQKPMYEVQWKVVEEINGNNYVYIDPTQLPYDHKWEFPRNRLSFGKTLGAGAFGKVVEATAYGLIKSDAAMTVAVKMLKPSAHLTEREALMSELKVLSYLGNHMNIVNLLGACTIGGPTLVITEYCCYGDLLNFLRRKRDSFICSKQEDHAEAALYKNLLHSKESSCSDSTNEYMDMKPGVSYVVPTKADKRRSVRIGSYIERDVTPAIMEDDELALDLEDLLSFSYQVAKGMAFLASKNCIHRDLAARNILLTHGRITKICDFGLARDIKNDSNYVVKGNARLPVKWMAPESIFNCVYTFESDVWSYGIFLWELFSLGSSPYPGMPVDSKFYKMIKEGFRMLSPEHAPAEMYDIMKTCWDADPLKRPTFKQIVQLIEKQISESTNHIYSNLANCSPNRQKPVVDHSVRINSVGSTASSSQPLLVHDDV

PDGFRβ, sequence (P09619 33-1106, species assumed): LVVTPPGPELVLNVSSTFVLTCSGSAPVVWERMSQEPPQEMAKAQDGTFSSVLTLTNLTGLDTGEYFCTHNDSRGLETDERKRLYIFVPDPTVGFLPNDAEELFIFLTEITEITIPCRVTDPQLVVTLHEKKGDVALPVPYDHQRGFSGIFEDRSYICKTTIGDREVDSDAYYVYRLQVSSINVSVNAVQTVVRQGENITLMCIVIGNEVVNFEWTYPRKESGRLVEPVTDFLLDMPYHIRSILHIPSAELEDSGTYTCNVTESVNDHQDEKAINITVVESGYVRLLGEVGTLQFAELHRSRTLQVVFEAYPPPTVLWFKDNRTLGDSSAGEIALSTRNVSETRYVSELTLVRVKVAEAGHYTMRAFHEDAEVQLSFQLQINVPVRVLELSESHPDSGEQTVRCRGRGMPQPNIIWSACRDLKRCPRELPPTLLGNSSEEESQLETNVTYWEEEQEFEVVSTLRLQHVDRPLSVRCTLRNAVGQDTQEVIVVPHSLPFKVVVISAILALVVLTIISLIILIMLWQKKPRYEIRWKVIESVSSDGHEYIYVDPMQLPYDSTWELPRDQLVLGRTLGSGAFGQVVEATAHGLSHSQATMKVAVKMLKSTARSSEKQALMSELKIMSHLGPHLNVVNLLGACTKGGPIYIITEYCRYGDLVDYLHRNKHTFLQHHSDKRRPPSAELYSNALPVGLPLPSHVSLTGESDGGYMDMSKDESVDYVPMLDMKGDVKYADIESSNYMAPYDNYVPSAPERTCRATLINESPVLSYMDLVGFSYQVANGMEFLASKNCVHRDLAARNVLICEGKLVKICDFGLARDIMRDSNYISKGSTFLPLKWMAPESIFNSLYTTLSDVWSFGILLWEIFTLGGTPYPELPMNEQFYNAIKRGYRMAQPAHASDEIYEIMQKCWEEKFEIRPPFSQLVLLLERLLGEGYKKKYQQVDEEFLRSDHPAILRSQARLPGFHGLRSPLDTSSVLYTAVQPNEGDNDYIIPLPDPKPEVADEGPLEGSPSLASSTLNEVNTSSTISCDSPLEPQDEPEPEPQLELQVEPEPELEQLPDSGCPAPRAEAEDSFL
T1 sequence (P35968 805-1356): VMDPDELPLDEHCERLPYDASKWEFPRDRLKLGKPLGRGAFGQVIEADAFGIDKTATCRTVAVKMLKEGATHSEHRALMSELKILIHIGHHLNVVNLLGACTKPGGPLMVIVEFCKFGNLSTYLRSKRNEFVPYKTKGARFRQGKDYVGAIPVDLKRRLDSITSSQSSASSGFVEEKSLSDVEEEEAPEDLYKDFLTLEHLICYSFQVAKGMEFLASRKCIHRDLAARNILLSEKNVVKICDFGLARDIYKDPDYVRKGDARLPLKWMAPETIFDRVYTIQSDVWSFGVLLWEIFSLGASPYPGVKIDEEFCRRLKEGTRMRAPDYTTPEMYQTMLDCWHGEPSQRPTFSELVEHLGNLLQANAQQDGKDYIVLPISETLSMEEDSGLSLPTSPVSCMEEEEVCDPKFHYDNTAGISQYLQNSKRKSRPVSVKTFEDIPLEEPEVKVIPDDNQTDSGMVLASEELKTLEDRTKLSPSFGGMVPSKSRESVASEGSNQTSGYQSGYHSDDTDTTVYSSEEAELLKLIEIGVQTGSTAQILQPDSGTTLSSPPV
C-Raf, sequence (P04049 whole entry Y340D/Y341D, form open): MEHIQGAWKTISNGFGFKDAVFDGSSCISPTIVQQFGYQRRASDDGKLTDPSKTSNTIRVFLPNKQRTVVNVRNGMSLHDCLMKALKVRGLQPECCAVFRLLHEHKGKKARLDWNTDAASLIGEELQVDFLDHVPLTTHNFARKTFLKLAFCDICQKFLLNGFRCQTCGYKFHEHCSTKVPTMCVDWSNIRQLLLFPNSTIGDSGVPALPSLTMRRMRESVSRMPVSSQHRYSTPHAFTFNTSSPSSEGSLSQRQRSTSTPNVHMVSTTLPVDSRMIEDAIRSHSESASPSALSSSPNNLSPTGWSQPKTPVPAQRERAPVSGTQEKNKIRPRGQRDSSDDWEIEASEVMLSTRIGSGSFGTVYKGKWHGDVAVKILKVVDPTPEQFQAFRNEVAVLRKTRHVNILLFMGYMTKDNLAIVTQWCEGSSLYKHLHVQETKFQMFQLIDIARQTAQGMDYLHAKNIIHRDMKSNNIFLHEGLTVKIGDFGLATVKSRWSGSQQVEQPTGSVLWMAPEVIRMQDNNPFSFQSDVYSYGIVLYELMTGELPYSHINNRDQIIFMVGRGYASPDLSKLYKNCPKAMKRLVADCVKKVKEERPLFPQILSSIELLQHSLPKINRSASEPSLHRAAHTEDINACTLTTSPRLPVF
T2 sequence (P15056 whole entry): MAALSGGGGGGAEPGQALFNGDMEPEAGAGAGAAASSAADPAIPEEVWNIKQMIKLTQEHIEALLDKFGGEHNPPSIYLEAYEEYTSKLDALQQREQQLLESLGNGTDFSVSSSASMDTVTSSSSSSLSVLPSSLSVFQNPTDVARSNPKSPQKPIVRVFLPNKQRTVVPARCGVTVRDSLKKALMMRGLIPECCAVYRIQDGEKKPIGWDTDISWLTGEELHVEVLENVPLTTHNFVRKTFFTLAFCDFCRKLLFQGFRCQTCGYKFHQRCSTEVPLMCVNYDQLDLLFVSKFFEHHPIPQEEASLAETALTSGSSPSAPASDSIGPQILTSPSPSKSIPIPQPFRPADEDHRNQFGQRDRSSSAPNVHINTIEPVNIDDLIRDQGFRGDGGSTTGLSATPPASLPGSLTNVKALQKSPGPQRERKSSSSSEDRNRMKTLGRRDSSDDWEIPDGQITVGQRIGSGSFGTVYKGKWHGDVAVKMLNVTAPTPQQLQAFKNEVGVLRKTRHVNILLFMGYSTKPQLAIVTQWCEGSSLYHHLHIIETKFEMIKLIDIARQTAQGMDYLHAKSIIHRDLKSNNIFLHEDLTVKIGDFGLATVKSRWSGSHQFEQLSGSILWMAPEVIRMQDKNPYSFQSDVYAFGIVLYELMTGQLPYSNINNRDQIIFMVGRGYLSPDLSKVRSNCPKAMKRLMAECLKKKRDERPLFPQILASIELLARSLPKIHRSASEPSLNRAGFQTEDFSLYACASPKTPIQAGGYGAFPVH

IC50 (HDAC)	IC50 (VEGFR2)	SMILES	further results
1000 to 10000 nM		O=C(CCCCn1ccc(Oc2ccc(NC(=O)Nc3ccc(Cl)c(C(F)(F)F)c3)cc2)cc1=O)NO [Compound 26]	
1000 to 10000 nM		O=C(CCCOc1cc(Oc2ccc(NC(=O)Nc3ccc(Cl)c(C(F)(F)F)c3)cc2)ccn1)NO [Compound 31]	
1000 to 10000 nM		C[C@@H](NC(=O)c1cc(Oc2ccc(NC(=O)Nc3ccc(Cl)c(C(F)(F)F)c3)cc2)ccn1)C(=O)NO [Compound 1, (R)-4-(4-(3-(4-chloro-3-(trifluoromethyl)phenyl)ureido)phenoxy)-N-(1-(hydroxyamino)-1-oxopropan-2-yl)picolinamide]	
100 to 1000 nM	< 100 nM	O=C(CCCCCNC(=O)c1cc(Oc2ccc(NC(=O)Nc3ccc(Cl)c(C(F)(F)F)c3)cc2)ccn1)NO [Compound 5, 4-(4-(3-(4-Chloro-3-(trifluoromethyl)phenyl)ureido)phenoxy)-N-(6-(hydroxyamino)-6-oxohexyl)picolinamide]	IC50 (C-Raf): 1000 to 10000 nM; IC50 (B-Raf): 1000 to 10000 nM; IC50 (PDGFRβ): 100 to 1000 nM; IC50 (cKit): < 100 nM
100 to 1000 nM	< 100 nM	O=C(CCCCOc1cc(Oc2ccc(NC(=O)Nc3ccc(Cl)c(C(F)(F)F)c3)cc2)ccn1)NO [Compound 32]	
100 to 1000 nM	< 100 nM	O=C(CCCC(=O)NCc1cc(Oc2ccc(NC(=O)Nc3ccc(Cl)c(C(F)(F)F)c3)cc2)ccn1)NO [Compound 20, N^1-((4-(4-(3-(4-chloro-3(trifluoromethyl)phenyl)ureido)phenoxy)pyridin-2-yl)methyl)-N^5-hydroxyglutaramide]	
1000 to 10000 nM		O=C(CCCCC(=O)Nc1cc(Oc2ccc(NC(=O)Nc3ccc(Cl)c(C(F)(F)F)c3)cc2)ccn1)NO [Compound 10, 1-(4-chloro-3-(trifluoromethyl)phenyl)-3-(4-(2-(6-(hydroxyamino)-6-oxohexanamido)pyridin-4-yloxy)phenyl)urea]	
100 to 1000 nM		O=C(CCCCCn1ccc(Oc2ccc(NC(=O)Nc3ccc(Cl)c(C(F)(F)F)c3)cc2)cc1=O)NO [Compound 27]	
100 to 1000 nM	< 100 nM	O=C(CCCCCCC(=O)NCc1cc(Oc2ccc(NC(=O)Nc3ccc(Cl)c(C(F)(F)F)c3)cc2)ccn1)NO [Compound 23, N^1-((4-(4-(3-(4-chloro-3(trifluoromethyl)phenyl)ureido)phenoxy)pyridin-2-yl)methyl)-N^8-hydroxyoctanediamide]	IC50 (PDGFRβ): 100 to 1000 nM; IC50 (cKit): < 100 nM
100 to 1000 nM		O=C(CCCCCCOc1cc(Oc2ccc(NC(=O)Nc3ccc(Cl)c(C(F)(F)F)c3)cc2)ccn1)NO [Compound 34]	
100 to 1000 nM		O=C(CCCCCCn1ccc(Oc2ccc(NC(=O)Nc3ccc(Cl)c(C(F)(F)F)c3)cc2)cc1=O)NO [Compound 28]	
1000 to 10000 nM		O=C(CCCCCOc1cc(Oc2ccc(NC(=O)Nc3ccc(Cl)c(C(F)(F)F)c3)cc2)ccn1)NO [Compound 33]	
100 to 1000 nM		O=C(CCCCCNCc1cc(Oc2ccc(NC(=O)Nc3ccc(Cl)c(C(F)(F)F)c3)cc2)ccn1)NO [Compound 16, 6-((4-(4-(3-(4-chloro-3-(trifluoromethyl)phenyl)ureido)phenoxy)pyridin-2-yl)methylamino)-N-hydroxyhexanamide]	
100 to 1000 nM	100 to 1000 nM	O=C(CCCCCCNCc1cc(Oc2ccc(NC(=O)Nc3ccc(Cl)c(C(F)(F)F)c3)cc2)ccn1)NO [Compound 17, 7-((4-(4-(3-(4-chloro-3-(trifluoromethyl)phenyl)ureido)phenoxy)pyridin-2-yl)methylamino)-N-hydroxyheptanamide]	
100 to 1000 nM	< 100 nM	O=C(CCCC(=O)Nc1cc(Oc2ccc(NC(=O)Nc3ccc(Cl)c(C(F)(F)F)c3)cc2)ccn1)NO [Compound 9, 1-(4-chloro-3-(trifluoromethyl)phenyl)-3-(4-(2-(5-(hydroxyamino)-5-oxopentanamido)pyridin-4-yloxy)phenyl)urea]	
100 to 1000 nM	< 100 nM	O=C(CCCCCCC(=O)Nc1cc(Oc2ccc(NC(=O)Nc3ccc(Cl)c(C(F)(F)F)c3)cc2)ccn1)NO [Compound 12, 1-(4-chloro-3-(trifluoromethyl)phenyl)-3-(4-(2-(8-(hydroxyamino)-8-oxooctanamido)pyridin-4-yloxy)phenyl)urea]	IC50 (C-Raf): < 100 nM; IC50 (PDGFRβ): < 100 nM; IC50 (cKit): < 100 nM
100 to 1000 nM		O=C(CCC(=O)NCc1cc(Oc2ccc(NC(=O)Nc3ccc(Cl)c(C(F)(F)F)c3)cc2)ccn1)NO [Compound 19, N^1-((4-(4-(3-(4-chloro-3-(trifluoromethyl)phenyl)ureido)phenoxy)pyridin-2-yl)methyl)-N^4-hydroxysuccinamide]	
1000 to 10000 nM	100 to 1000 nM	O=C(CCCCCCCNC(=O)c1cc(Oc2ccc(NC(=O)Nc3ccc(Cl)c(C(F)(F)F)c3)cc2)ccn1)NO [Compound 7, 4-(4-(3-(4-chloro-3-(trifluoromethyl)phenyl)ureido)phenoxy)-N-(8-(hydroxyamino)-8-oxooctyl)picolinamide]	IC50 (PDGFRβ): 100 to 1000 nM; IC50 (cKit): < 100 nM
> 10000 nM	1000 to 10000 nM	O=C(Nc1ccc(Oc2ccnc(C(=O)NO)c2)cc1)Nc1ccc(Cl)c(C(F)(F)F)c1 [Compound 36, 4-(4-(3-(4-chloro-3-(trifluoromethyl)phenyl)ureido)phenoxy)-N-hydroxypicolinamide]	
1000 to 10000 nM		O=C(CCCNC(=O)c1cc(Oc2ccc(NC(=O)Nc3ccc(Cl)c(C(F)(F)F)c3)cc2)ccn1)NO [Compound 3, 4-(4-(3-(4-chloro-3-(trifluoromethyl)phenyl)ureido)phenoxy)-N-(4-(hydroxyamino)-4-oxobutyl)picolinamide]	
1000 to 10000 nM		O=C(CCCn1ccc(Oc2ccc(NC(=O)Nc3ccc(Cl)c(C(F)(F)F)c3)cc2)cc1=O)NO [Compound 25]	
100 to 1000 nM	100 to 1000 nM	O=C(CCCCCCCNCc1cc(Oc2ccc(NC(=O)Nc3ccc(Cl)c(C(F)(F)F)c3)cc2)ccn1)NO [Compound 18, 8-((4-(4-(3-(4-Chloro-3-(trifluoromethyl)phenyl)ureido)phenoxy)pyridin-2-yl)methylamino)-N-hydroxyoctanamide]	
100 to 1000 nM		O=C(CCCCCCNC(=O)c1cc(Oc2ccc(NC(=O)Nc3ccc(Cl)c(C(F)(F)F)c3)cc2)ccn1)NO [Compound 6, 4-(4-(3-(4-chloro-3-(trifluoromethyl)phenyl)ureido)phenoxy)-N-(7-(hydroxyamino)-7-oxoheptyl)picolinamide]	
100 to 1000 nM	< 100 nM	O=C(CCCCC(=O)NCc1cc(Oc2ccc(NC(=O)Nc3ccc(Cl)c(C(F)(F)F)c3)cc2)ccn1)NO [Compound 21, N^1-((4-(4-(3-(4-chloro-3(trifluoromethyl)phenyl)ureido)phenoxy)pyridin-2-yl)methyl)-N^6-hydroxyadipamide]	IC50 (PDGFRβ): 100 to 1000 nM; IC50 (cKit): < 100 nM
